Results: PubChem BioAssay (NCI)
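In this assay, cells in 96-well plates receive the compound at five concentrations for 48 hours. Endpoints are linearly interpolated between the surrounding concentrations. TGI: concentration producing complete growth inhibition.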

How the values were obtained:
Assay in all cases: growth of human tumour cells (NCI), 48 h
[1] = test system: SK-MEL-5 melanoma
[2] = test system: MOLT-4 leukemia
[3] = test system: SR leukemia
[4] = test system: MDA-N
[5] = test system: U251 CNS
[6] = test system: M14 melanoma
[7] = test system: K-562 leukemia
[8] = test system: MDA-MB-231 breast
[9] = test system: MCF7 breast
[10] = test system: SK-MEL-2 melanoma
[11] = test system: MALME-3M melanoma
[12] = test system: HL-60(TB) leukemia
[13] = test system: SK-MEL-28 melanoma
[14] = test system: SNB-75 CNS
[15] = test system: T-47D breast
[16] = test system: CCRF-CEM leukemia
[17] = test system: IGROV1 ovarian
[18] = test system: NCI-H226 lung
[19] = test system: UO-31 renal
[20] = test system: KM12 colon
[21] = test system: EKVX NSCLC
[22] = test system: 786-0 renal
[23] = test system: RXF 393 renal
[24] = test system: CAKI-1 renal
[25] = test system: NCI-H522 lung
[26] = test system: SW-620 colon
[27] = test system: TK-10 renal
[28] = test system: OVCAR-5 ovarian
[29] = test system: A498 renal
[30] = test system: LOX IMVI melanoma
[31] = test system: HOP-62 NSCLC
[32] = test system: HCC-2998 colon
[33] = test system: UACC-257 melanoma
[34] = test system: OVCAR-4 ovarian
[35] = test system: HT29 colon
[36] = test system: UACC-62 melanoma
[37] = test system: PC-3 prostate
[38] = test system: NCI-H460 lung
[39] = test system: DU-145 prostate
[40] = test system: BT-549 breast
[41] = test system: HCT-15 colon
[42] = test system: SN12C renal
[43] = test system: SF-295 CNS
[44] = test system: A549 NSCLC
[45] = test system: ACHN renal
[46] = test system: HS 578T breast
[47] = test system: SK-OV-3 ovarian
[48] = test system: NCI/ADR-RES ovarian
[49] = test system: SF-268 CNS
[50] = test system: HOP-92 NSCLC
[51] = test system: OVCAR-3 ovarian
[52] = test system: OVCAR-8 ovarian
[53] = test system: MDA-MB-435
[54] = test system: NCI-H23 lung
[55] = test system: RPMI-8226 leukemia
[56] = test system: HCT-116 colon
[57] = test system: COLO 205 colon
[58] = test system: SNB-19 CNS
[59] = test system: SF-539 CNS

With CCOC(=O)/C(C#N)=C1\c2c([nH]c(=S)[nH]c2=O)Oc2ccc3ccccc3c21 the TGI [1] was 41.4 µM, the TGI [2] was 47.3 µM and the TGI [3] was greater than 100 µM. It also gave a TGI [4] greater than 100 µM, a TGI [5] greater than 100 µM and a TGI [6] greater than 100 µM. It also gave a TGI [7] greater than 100 µM, a TGI [8] greater than 100 µM and a TGI [9] greater than 100 µM. It also gave a TGI [10] of 41 µM, a TGI [11] greater than 100 µM and a TGI [12] of 4.56 µM. It also gave a TGI [13] of 3.81 µM, a TGI [14] of 52 µM and a TGI [15] greater than 100 µM. For the same compound, the TGI [16] was 4.26 µM, the TGI [17] was greater than 100 µM and the TGI [18] was greater than 100 µM. The TGI [19] was greater than 100 µM, the TGI [20] was greater than 100 µM and the TGI [21] was greater than 100 µM. For the same compound, the TGI [22] was greater than 100 µM, the TGI [23] was greater than 100 µM and the TGI [24] was greater than 100 µM. The TGI [25] was 54.5 µM, the TGI [26] was 12.2 µM and the TGI [27] was greater than 100 µM. It also gave a TGI [28] greater than 100 µM, a TGI [29] greater than 100 µM and a TGI [30] greater than 100 µM. For the same compound, the TGI [31] was greater than 100 µM, the TGI [32] was greater than 100 µM and the TGI [33] was greater than 100 µM. It also gave a TGI [34] greater than 100 µM, a TGI [35] greater than 100 µM and a TGI [36] greater than 100 µM. It also gave a TGI [37] greater than 100 µM, a TGI [38] greater than 100 µM and a TGI [39] greater than 100 µM. It also gave a TGI [40] greater than 100 µM, a TGI [41] greater than 100 µM and a TGI [42] greater than 100 µM. The TGI [43] was greater than 100 µM, the TGI [44] was greater than 100 µM and the TGI [45] was greater than 100 µM. It also gave a TGI [46] greater than 100 µM, a TGI [47] greater than 100 µM and a TGI [48] greater than 100 µM. It also gave a TGI [49] greater than 100 µM, a TGI [50] greater than 100 µM and a TGI [51] of 58.8 µM. For the same compound, the TGI [52] was greater than 100 µM, the TGI [53] was greater than 100 µM and the TGI [54] was greater than 100 µM. For the same compound, the TGI [55] was greater than 100 µM, the TGI [56] was greater than 100 µM and the TGI [57] was greater than 100 µM. The TGI [58] was 58.5 µM.
Work on NC1=NN(c2ccccc2)C2(O)c3ccncc3C3=NN(c4ccccc4)C(=O)C132 (centres undefined) yielded a TGI [1] greater than 100 µM, a TGI [2] greater than 100 µM and a TGI [3] greater than 100 µM. For the same compound, the TGI [4] was greater than 100 µM, the TGI [5] was greater than 100 µM and the TGI [6] was greater than 100 µM. For the same compound, the TGI [7] was greater than 100 µM, the TGI [8] was greater than 100 µM and the TGI [9] was greater than 100 µM. It also gave a TGI [10] greater than 100 µM, a TGI [11] greater than 100 µM and a TGI [12] greater than 100 µM. The TGI [13] was greater than 100 µM, the TGI [14] was greater than 100 µM and the TGI [15] was greater than 100 µM. It also gave a TGI [17] greater than 100 µM, a TGI [18] greater than 100 µM and a TGI [19] greater than 100 µM. The TGI [20] was greater than 100 µM, the TGI [21] was greater than 100 µM and the TGI [22] was greater than 100 µM. It also gave a TGI [23] greater than 100 µM, a TGI [24] greater than 100 µM and a TGI [25] greater than 100 µM. For the same compound, the TGI [26] was greater than 100 µM, the TGI [28] was greater than 100 µM and the TGI [29] was greater than 100 µM. It also gave a TGI [30] greater than 100 µM, a TGI [32] greater than 100 µM and a TGI [33] greater than 100 µM. The TGI [34] was greater than 100 µM, the TGI [35] was greater than 100 µM and the TGI [36] was greater than 100 µM. For the same compound, the TGI [37] was greater than 100 µM, the TGI [38] was greater than 100 µM and the TGI [39] was greater than 100 µM. For the same compound, the TGI [40] was greater than 100 µM, the TGI [41] was greater than 100 µM and the TGI [42] was greater than 100 µM. For the same compound, the TGI [43] was greater than 100 µM, the TGI [44] was greater than 100 µM and the TGI [45] was greater than 100 µM. For the same compound, the TGI [46] was greater than 100 µM, the TGI [47] was greater than 100 µM and the TGI [48] was greater than 100 µM. For the same compound, the TGI [49] was greater than 100 µM, the TGI [50] was greater than 100 µM and the TGI [51] was greater than 100 µM. The TGI [52] was greater than 100 µM, the TGI [53] was greater than 100 µM and the TGI [54] was greater than 100 µM. The TGI [55] was greater than 100 µM, the TGI [56] was greater than 100 µM and the TGI [57] was greater than 100 µM. For the same compound, the TGI [58] was greater than 100 µM and the TGI [59] was greater than 100 µM.
